Here are results for three compounds from US6624156B2, “Methods of making and method of using hybrid cholinergic agents and compositions” (Board of Trustees of the University of Arkansas, priority 2001, dated 2003).

As usually defined, the IC50 is the concentration at which inhibition is half-maximal.

Assay [1] addresses T1, M3 muscarinic receptor (Rattus norvegicus, UniProt P08483).
T1 construct: host or cells: CHO cells
Nature of the assay: Inhibition of 3H-N-methylscopolamine binding to CHO cells expressing M3 muscarinic receptors. The conditions noted are these: for IC50: read-out: IC50 (inhibition of 3H-NMS binding), CHO cells expressing M3, 0.6 nM 3H-NMS, 45 min 37° C., mean±SE of at least three assays. The method, then: The objective of this experiment was to evaluate whether LCC interacted with muscarinic M3 receptors. CHO cells expressing M3 muscarinic receptors were obtained from the American Type Culture Collection (ATCC), MD. The interaction of LCC with the M3 receptors was determined by an assay which measures inhibition of ^3H-N-methylscopolamine (^3H-NMS) binding to the M3 receptor. […] Lithocholyltaurine and lithocholylglycine are physiological conjugates of lithocholic acid.
5×10^5 CHO cells (0.5 ml) were incubated for 45 minutes at 37° C. with 0.6 nM ^3H-NMS alone or with unlabeled ligand. Nonspecific binding was determined in the presence of 10.0 μM unlabeled NMS. The reaction was terminated by centrifuging 0.5 ml of cell suspension at 10,000 g for 7 minutes at room temperature. 100 μl of supernatant was sampled for determination of free ligand concentration, and the remaining liquid was carefully decanted. The cell pellet was washed, drained, and dissolved in 100 μl Soluene 350.

Assay [2] has as its target T1, M3 muscarinic receptor. The assay can be described thus: Acetylcholine-induced inositol phosphate (IP) formation in CHO-M3 cells. It is filed as cell-based. The method, then: Post-receptor (downstream) actions of LCC were determined by measuring increases in inositol phosphates (IP) after incubating cells with 3H-myo-inositol. CHO cell inositol 1,4,5-triphosphate (IP3) was determined by the methods of Hu and El-Fakahany (1990, Mol. Pharmacol. 38:895-903) and Labarca et al., (1987, Methods Enzymol. 141:192-201). 5×10^4 cells/well were incubated with 1.0 μCi/ml myo-[2-^3H]inositol for 24 hour at 37° C., treated with 20 mM LiCl for 30 minutes at 37° C. Cells were then incubated with the test agents for 30 minutes at 37° C. The IP3 fraction was separated by ion-exchange chromatography (AG2 X8 resin), and the dpm in this fraction were determined by liquid scintillation.
The highest LCC concentration tested (0.1 mM) reduced ACh-induced IP production by 80%, thereby confirming competition of LCC and ACh for the same receptor, indicating interaction of LCC and ACh with the same receptor. Thus, LCC is an M3 muscarinic receptor antagonist.

The structures appear in SMILES notation.

T1 sequence (P08483 whole entry): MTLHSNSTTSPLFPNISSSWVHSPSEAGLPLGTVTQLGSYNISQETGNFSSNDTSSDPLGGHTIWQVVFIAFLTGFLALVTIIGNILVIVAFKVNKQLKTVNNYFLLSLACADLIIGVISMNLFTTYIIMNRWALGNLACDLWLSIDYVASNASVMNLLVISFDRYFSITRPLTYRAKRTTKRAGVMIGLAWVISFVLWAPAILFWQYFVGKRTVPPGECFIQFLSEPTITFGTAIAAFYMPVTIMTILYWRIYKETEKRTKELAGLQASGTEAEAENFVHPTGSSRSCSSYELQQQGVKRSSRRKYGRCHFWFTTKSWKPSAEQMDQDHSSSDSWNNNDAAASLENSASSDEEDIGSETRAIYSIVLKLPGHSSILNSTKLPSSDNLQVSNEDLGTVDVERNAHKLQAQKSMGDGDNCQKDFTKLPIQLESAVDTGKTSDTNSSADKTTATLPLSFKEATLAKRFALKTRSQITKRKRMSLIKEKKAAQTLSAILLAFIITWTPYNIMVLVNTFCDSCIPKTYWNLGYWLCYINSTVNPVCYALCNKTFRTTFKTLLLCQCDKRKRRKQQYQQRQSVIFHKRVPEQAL

In the case of `C[C@H](CCC(=O)OCC[N+](C)(C)C)[C@H]1CC[C@H]2[C@@H]3CC[C@@H]4C[C@H](O)CC[C@]4(C)[C@H]3CC[C@]12C` [LCC, lithocholylcholine], on M3 muscarinic receptor [1] (LCC vs acetylcholine), the “potency relative to acetylcholine at inhibiting 3H-NMS binding” value is “about 2 times”. Also, on M3 muscarinic receptor [1] (LCC vs carbachol), the “potency relative to carbachol at inhibiting 3H-NMS binding” value is reported as “about 60 times”. Further, on M3 muscarinic receptor [1], the IC50 is 6.4 ± 0.8 µM. Moreover, on M3 muscarinic receptor [2] (10.0 μM acetylcholine), the “inhibition of ACh-induced IP formation compared with equal concentrations of LCT” value was “overall greater extent”. Moreover, the “reduction of ACh-induced IP production” value on M3 muscarinic receptor [2] (0.1 mM LCC, 10.0 μM acetylcholine) is 80%. The “effect of agent alone on IP formation” value at M3 muscarinic receptor [2] (LCC alone) was “not alter IP formation”.

As to `C[C@H](CCC(=O)NCC(=O)O)[C@H]1CC[C@H]2[C@@H]3CC[C@@H]4C[C@H](O)CC[C@]4(C)[C@H]3CC[C@]12C` [Lithocholylglycine, reference compound], at M3 muscarinic receptor [1], the IC50 amounted to 228 ± 41.2 µM.

Turning to `C[C@H](CCC(=O)NCCS(=O)(=O)O)[C@H]1CC[C@H]2[C@@H]3CC[C@@H]4C[C@H](O)CC[C@]4(C)[C@H]3CC[C@]12C` [Lithocholyltaurine, lithocholyltaurine, reference compound], at M3 muscarinic receptor [1], the IC50 was 165 ± 38.5 µM.
